# In article PMC6353975, “Design and activity study of a melittin–thanatin hybrid peptide” (AMB Express, 2019):
# Tests used:
# [1] = thanatin data from the reference; ref Fehlbaum et al. [1996]; cited from earlier work
# Text: Table 1 Physicochemical properties of hybrid peptide | column: Isoelectric point (pI)
# S. aureus [2] = conditions: ref Fehlbaum et al. [1996]; Mandard et al. [1998]; cited from earlier work
# Text: Thanatin, with a primary structure of […], is a type of antimicrobial peptide consisting of 21 amino acid residues. It is found in the insect Podisus maculiventris. […] It is a peptide consisting of 26 amino acids with a primary structure of […]. […] However, its clinical application is limited by its strong toxicity (mainly hemolytic activity), genotoxicity, and influence on gene expression (Gajski et al. [2016]; Wu et al. [2015]). To ...
# S. aureus [3] = test: In vitro antimicrobial experiments with the recombinant hybrid peptide; type: cell-based, Staphylococcus aureus; conditions: recombinant peptide from E. coli fusion expression after acid hydrolysis; not obtained pure
# Text: To expand the antimicrobial spectrum of thanatin and avoid the toxic effects of melittin, a hybrid antimicrobial peptide was designed according to a previous study (Blondelle and Houghten [1991]). Hemolysis was slightly affected by the removal of C-terminal amino acids of melittin, according to the previous study (Jahnsen et al. [2015]). Four alkaline amino acids (KRKR) are located at the C-terminal amino acids of melittin. The hybrid antimicrobial peptide that includes the full-length of thanatin and the C-terminal of melittin may reveal a stronger and safer antibacterial effect (Leonardo et al. [2012]). The hybrid antimicrobial peptide […]-AGP-[…] was designed using melittin’s C-terminal 15-amino acid mutant GLPL*[…] (L*wild type was A) as the N-terminus and thanatin as the C-terminus and by ligating with AGP to create a hybrid peptide that could inhibit S. aureus without hemolytic activity. The fusion expression of the hybrid peptide was carried out in Escherichia coli by using genetic engineering techniques, and the acid hydrolysis site AP was added to the N-terminus of the hybrid peptide. After the engineered bacteria were fermented, separated, acid-hydrolyzed, and purified, another proline residue was found on the N-terminus of the resulting peptide, that is, […]. […] However, pure hybrid peptide was not obtained due to problems associated with acid hydrolysis. […]
Sequence,Isoelectric point (pI) [1],inhibition of S. aureus (S. aureus [2]),inhibition of growth of S. aureus (S. aureus [3])
"GSKKPVPIIYCNRRTGKCQRM [Thanatin, thanatin, antimicrobial peptide of 21 amino acid residues found in the insect Podisus maculiventris]",10.48,does not inhibit S. aureus,
"PGLPLLISWIKRKRQQGSKKPVPIIYCNRRTGKCQRM [hybrid peptide expressed as fusion in Escherichia coli, acid-hydrolyzed, with another proline on the N-terminus; not obtained pure]",,,inhibited the growth of S. aureus
